Measurements: PMC3467217, “A Potent Class of GPR40 Full Agonists Engages the EnteroInsular Axis to Promote Glucose Control in Rodents” (PLoS ONE, 2012)

Tests used:
GPR40 [1] = biological target: T1, GPR40 (Homo sapiens, UniProt O14842); test: Aequorin Ca2+ flux assay in CHO cell line stably expressing GPR40; assay type: cell-based; settings: CHO-GPR40 stable cell line; for Emax: compared to natural free fatty acid ligands, read-out: Emax (efficacy)
T1 construct: expressed in transfected cells; host or cells: CHO cell line stably expressing GPR40 and aequorin
T1 sequence (O14842 whole entry): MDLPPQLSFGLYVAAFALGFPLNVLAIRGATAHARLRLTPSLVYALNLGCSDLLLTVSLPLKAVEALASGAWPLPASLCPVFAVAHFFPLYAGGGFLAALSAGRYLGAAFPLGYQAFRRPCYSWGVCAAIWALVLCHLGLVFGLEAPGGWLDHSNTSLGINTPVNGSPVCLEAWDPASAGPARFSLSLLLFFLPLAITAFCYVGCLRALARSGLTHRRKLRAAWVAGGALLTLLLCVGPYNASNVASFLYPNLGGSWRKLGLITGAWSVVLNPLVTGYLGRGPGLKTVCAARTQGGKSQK
Method: Since GPR40 agonists with greater intrinsic activity may have improved anti-diabetic properties, we focused our efforts to discover potent synthetic full agonists.
(§1) GPR40 aequorin, plasmid titration, and inositol phosphate assays were performed as described. For aequorin assays, in addition to transient transfection of GPR40 into CHO cells, a CHO cell line stably expressing both GPR40 and aequorin was generated. GLUTag cells were obtained under a license from Dr. Daniel Drucker, University of Toronto. Competition binding experiments were performed using membranes prepared from A9_GPR40 cells. […] Competition binding assays were carried out in 20 mM Hepes pH 7.5, 5 mM MgCl2, 100 mM NaCl and 0.1% (w/v) free fatty acid BSA and bound radioligand was collected on 96-well GF/C filter plates.

GPR40 [2] = biological target: T1, GPR40; test: Inositol phosphate accumulation assay in A9 cells stably expressing GPR40 (A9_GPR40); assay type: cell-based; settings: for agonist character: inositol phosphate accumulation, A9 cells stably expressing GPR40 (figure S1)
Method: as §1
(A) Structure of selected GPR40 agonists. (B) GPR40 agonists were tested in parallel in vitro in an inositol phosphate accumulation assay in A9 cells stably expressing GPR40. (TIF) Click here for additional data file.

GPR40 [3] = biological target: T1, GPR40; test: Competition binding with 3H-AM-1638 on A9_GPR40 membranes; settings: unlabelled competitor
Method: as §1

GPR41 (FFAR3) = biological target: T2, GPR41 (FFAR3) (Homo sapiens, UniProt O14843); test: GPR41 aequorin assay; assay type: cell-based; settings: up to 10 µM
T2 construct: expressed in transfected cells
T2 sequence (O14843 whole entry, species assumed): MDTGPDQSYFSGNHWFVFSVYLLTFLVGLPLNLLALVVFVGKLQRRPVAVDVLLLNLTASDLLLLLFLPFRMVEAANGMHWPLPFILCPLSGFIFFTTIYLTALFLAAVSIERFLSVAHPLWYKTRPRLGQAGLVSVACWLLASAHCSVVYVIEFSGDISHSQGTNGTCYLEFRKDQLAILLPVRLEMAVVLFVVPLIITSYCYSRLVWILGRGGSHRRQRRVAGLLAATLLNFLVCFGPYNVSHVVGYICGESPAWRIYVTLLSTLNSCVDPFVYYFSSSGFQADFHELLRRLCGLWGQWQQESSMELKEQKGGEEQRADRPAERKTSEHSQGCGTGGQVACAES
Source text: (§2) (A) GPR41 (FFAR3) aequorin assay. GPR41 was force coupled to the calcium signaling pathway by co-transfecting the cells with Gqmyri5. (B) GPR43 (FFAR2) aequorin assay. The short chain fatty acid propionate acts as a natural agonist ligand for GPR41 and GPR43. (C) GPR120 aequorin assay. The unsaturated fatty acids α-LNN and DHA act as natural agonist ligands for GPR120. (D) PPAR-gamma luciferase assay using the thiazolidinedione rosiglitazone as a positive control. […] (TIF) Click here for additional data file.

GPR43 (FFAR2) = biological target: T3, GPR43 (FFAR2) (Homo sapiens, UniProt O15552); test: GPR43 aequorin assay; assay type: cell-based; settings: up to 10 µM
T3 construct: expressed in transfected cells
T3 sequence (O15552 whole entry, species assumed): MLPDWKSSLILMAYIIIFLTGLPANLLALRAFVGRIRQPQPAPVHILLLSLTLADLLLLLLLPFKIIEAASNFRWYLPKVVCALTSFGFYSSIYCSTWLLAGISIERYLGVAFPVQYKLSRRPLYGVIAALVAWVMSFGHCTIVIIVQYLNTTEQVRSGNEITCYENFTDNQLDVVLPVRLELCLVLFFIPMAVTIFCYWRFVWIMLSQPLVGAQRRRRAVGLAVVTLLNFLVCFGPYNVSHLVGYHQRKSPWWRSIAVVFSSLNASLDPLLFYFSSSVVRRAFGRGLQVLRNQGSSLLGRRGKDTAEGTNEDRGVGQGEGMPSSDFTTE
Source text: as §2

GPR120 = biological target: T4, GPR120 (Homo sapiens, UniProt Q5NUL3); test: GPR120 aequorin assay; assay type: cell-based; settings: weak activity
T4 construct: expressed in transfected cells
T4 sequence (Q5NUL3 whole entry, species assumed): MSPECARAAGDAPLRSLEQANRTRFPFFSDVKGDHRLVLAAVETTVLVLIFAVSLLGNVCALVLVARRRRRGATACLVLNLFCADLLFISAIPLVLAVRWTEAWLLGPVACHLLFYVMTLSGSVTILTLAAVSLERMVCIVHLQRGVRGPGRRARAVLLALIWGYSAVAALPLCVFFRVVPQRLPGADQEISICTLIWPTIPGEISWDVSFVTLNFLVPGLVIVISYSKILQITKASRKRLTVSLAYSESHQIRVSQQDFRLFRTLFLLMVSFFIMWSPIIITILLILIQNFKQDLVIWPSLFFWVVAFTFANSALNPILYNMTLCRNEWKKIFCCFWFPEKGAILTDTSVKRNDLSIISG
Source text: as §2

PPAR alpha = PPAR alpha (Homo sapiens, UniProt Q07869); test: PPAR-alpha luciferase reporter assay; assay type: cell-based; settings: concentrations up to 10 µM
Chain of PPAR alpha (Q07869 whole entry, species assumed): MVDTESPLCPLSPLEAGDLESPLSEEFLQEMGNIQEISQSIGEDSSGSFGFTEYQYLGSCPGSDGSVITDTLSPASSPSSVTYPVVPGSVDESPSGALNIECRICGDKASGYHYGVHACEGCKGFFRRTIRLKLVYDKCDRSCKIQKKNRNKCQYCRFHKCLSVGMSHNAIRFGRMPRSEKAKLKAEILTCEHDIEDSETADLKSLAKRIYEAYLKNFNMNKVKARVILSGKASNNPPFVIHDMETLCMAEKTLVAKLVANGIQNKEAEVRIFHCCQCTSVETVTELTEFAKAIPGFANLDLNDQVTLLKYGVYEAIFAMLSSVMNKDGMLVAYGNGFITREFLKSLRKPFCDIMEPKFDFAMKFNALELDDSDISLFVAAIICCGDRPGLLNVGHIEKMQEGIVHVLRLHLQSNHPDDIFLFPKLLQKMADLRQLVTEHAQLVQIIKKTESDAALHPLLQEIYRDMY

PPAR delta = PPAR delta (Homo sapiens, UniProt Q03181); test: PPAR-delta luciferase reporter assay; assay type: cell-based; settings: concentrations up to 10 µM
Chain of PPAR delta (Q03181 whole entry): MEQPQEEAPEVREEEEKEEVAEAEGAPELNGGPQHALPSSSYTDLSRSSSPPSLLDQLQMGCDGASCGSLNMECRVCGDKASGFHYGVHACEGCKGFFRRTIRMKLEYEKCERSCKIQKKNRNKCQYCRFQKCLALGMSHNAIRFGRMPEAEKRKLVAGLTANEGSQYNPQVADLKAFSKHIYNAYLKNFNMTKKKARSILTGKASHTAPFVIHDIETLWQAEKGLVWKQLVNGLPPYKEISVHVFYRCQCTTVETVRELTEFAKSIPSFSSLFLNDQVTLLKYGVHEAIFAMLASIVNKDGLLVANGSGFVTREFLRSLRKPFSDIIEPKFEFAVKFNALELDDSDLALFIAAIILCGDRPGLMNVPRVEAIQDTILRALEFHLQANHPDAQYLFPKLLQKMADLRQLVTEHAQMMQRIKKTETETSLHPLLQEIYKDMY

PPAR gamma = PPAR gamma (Homo sapiens, UniProt P37231); test: PPAR-gamma luciferase assay; assay type: cell-based; settings: concentrations up to 10 µM
Chain of PPAR gamma (P37231 whole entry): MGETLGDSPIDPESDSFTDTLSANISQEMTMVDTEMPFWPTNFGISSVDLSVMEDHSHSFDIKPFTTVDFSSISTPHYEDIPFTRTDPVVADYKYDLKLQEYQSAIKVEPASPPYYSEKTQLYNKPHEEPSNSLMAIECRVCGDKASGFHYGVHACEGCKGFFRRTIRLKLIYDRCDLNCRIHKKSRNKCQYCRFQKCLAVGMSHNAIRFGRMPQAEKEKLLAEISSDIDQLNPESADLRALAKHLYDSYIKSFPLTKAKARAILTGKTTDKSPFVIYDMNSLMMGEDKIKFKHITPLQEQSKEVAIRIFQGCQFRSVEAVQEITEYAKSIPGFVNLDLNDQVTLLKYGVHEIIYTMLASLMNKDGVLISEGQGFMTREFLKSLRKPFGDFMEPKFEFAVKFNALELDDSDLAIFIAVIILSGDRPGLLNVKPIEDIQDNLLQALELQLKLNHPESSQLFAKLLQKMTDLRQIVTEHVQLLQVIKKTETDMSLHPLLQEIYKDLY
Source text: as §2

mouse islets [4] = test: GSIS assay in mouse islets; assay type: cell-based; settings: 16.7 mM glucose
Method: (§3) Mouse islets were isolated and tested for stimulation of GSIS as described. Human islets were purchased from Prodo labs or were obtained from the National Institutes of Health and Juvenile Diabetes Research Foundation supported Islet Cell Resource Consortium (http://icr.coh.org). Islet inositol phosphate assays were performed on islets cells that had been dispersed with trypsin. 10,000 islet cells were plated/well of a 96-well plate and were loaded with ^3H-myo-inositol (0.5 µCi/well) in RPMI overnight prior to treatment. The next day, response to different stimuli was tested in HBSS containing 10 mM LiCl and 0.1% HSA (w/v) for 1 hour at 37°C. Accumulated ^3H-inositol phosphate was measured after capture to SPA beads. Islet perifusion experiments were performed on mouse islets loaded into a Brandel Suprafusion system. Twenty islets were size-matched and loaded per perifusion chamber. Islets were perifused in KRBH containing, sequentially, 3 mM glucose, then 3 mM glucose containing 10 µM drug, 16.7 mM glucose containing 10 µM drug and finally returned to 3 mM glucose containing 10 µM drug. Insulin was measured using an insulin ELISA kit (Alpco). Fetal rat intestinal cells were isolated from e19-day old fetuses of pregnant Sprague-Dawley rats. Briefly, fetal intestines were isolated and digested in HBSS buffer containing 0.5 mg/ml collagenase (Sigma), 0.5 mg/ml of hyaluronidase (Sigma) and 0.05 mg/ml of deoxyribonuclease I (Roche) for 30 minutes at 37°C. The digestion was quenched using HBSS containing 15% FBS. Fetal rat intestinal cells were washed and cultured overnight in DMEM containing 5% FBS in 96-well plates. To test for secretion of GLP-1 and GIP in response to treatments, we incubated cells for 1 hour with treatments in KRBH buffer containing 0.05% BSA (w/v). GLP-1 and GIP1 secreted into the media was measured using ELISA kits specific for GLP-1 (Linco) or GIP (Millipore).

[5] = system: islets isolated from GPR40 knockout mice; test: GSIS assay with islets from GPR40 knock-out mice; assay type: cell-based, mouse
Method: as §3

human islet cells = test: Inositol phosphate assay with dispersed human islet cells; assay type: cell-based
Method: as §3, with “Briefly, fetal intestines were isolated and digested in HBSS buffer containing 0.5 mg/ml collagenase (Sigma), 0.5 mg/ml of hyaluronidase (Sigma) and 0.05 mg/ml of deoxyribonuclease I (Roche) for 30 minutes at 37°C. The digestion was quenched using HBSS containing 15% FBS. Fetal rat intestinal cells were washed and cultured overnight in DMEM containing 5% FBS in 96-well plates. To test for secretion of GLP-1 and GIP in response to treatments, we incubated cells for 1 hour with treatments in KRBH buffer containing 0.05% BSA (w/v).” left out

human islets = test: GSIS assay with human islets; assay type: cell-based; settings: 12.5 mM glucose
Method: as §3, with “Briefly, fetal intestines were isolated and digested in HBSS buffer containing 0.5 mg/ml collagenase (Sigma), 0.5 mg/ml of hyaluronidase (Sigma) and 0.05 mg/ml of deoxyribonuclease I (Roche) for 30 minutes at 37°C. The digestion was quenched using HBSS containing 15% FBS. Fetal rat intestinal cells were washed and cultured overnight in DMEM containing 5% FBS in 96-well plates. To test for secretion of GLP-1 and GIP in response to treatments, we incubated cells for 1 hour with treatments in KRBH buffer containing 0.05% BSA (w/v).” left out

GLUTag cells = test: Inositol phosphate accumulation assay in GLUTag enteroendocrine L-cell line; assay type: cell-based, mouse
Method: (§4) Increased GLP-1 and GIP would be expected to have additional benefits in type 2 diabetics. […] We tested for potential effects on incretin secretion in vitro by using cells isolated from fetal rat intestines.
as §1

mouse islets [6] = test: Mouse islet perifusion assay; assay type: cell-based; settings: 10 µM compound
Method: as §3

[7] = system: fetal rat intestinal cells; test: GLP-1 secretion assay with fetal rat intestinal cells; assay type: cell-based; settings: 1 hour
Source text: as §4
Mouse islets were isolated and tested for stimulation of GSIS as described. Human islets were purchased from Prodo labs or were obtained from the National Institutes of Health and Juvenile Diabetes Research Foundation supported Islet Cell Resource Consortium (http://icr.coh.org). Islet inositol phosphate assays were performed on islets cells that had been dispersed with trypsin. 10,000 islet cells were plated/well of a 96-well plate and were loaded with ^3H-myo-inositol (0.5 µCi/well) in RPMI overnight prior to treatment. The next day, response to different stimuli was tested in HBSS containing 10 mM LiCl and 0.1% HSA (w/v) for 1 hour at 37°C. Accumulated ^3H-inositol phosphate was measured after capture to SPA beads. Islet perifusion experiments were performed on mouse islets loaded into a Brandel Suprafusion system. Twenty islets were size-matched and loaded per perifusion chamber. […] Insulin was measured using an insulin ELISA kit (Alpco). […] GLP-1 and GIP1 secreted into the media was measured using ELISA kits specific for GLP-1 (Linco) or GIP (Millipore).

HF/STZ mice [8] = test: OGTT in high-fat fed, streptozotocin-treated (HF/STZ) type 2 diabetic mice; assay type: in vivo, mouse
Method: (§5) All procedures on animals were approved by the Amgen San Francisco Institutional Animal Care and Use Committee (approved protocols #11–04 and #2007–00106). The Amgen San Francisco vivarium is an AAALAC accredited facility. Animals were housed under a 12-h light, 12-h dark cycle (lights-on 0600 h and lights-off 1800 h) and were allowed ad libidum access to chow and water. The HF/STZ mice were established as previously described. Briefly, C57BL/6j mice (Jackson labs) at 4 weeks of age were fed a high-fat diet (BioServ S1850, 35% fat) for 3-weeks and then injected with 95 mg/kg streptozotocin (Sigma) ip to induce beta cell dysfunction. The animals continued on the same high fat diet for 3–6 additional weeks. Animals were then randomized into treatment groups based on fasting blood glucose and insulin measures. NONcNZO10/LtJ (RCS10) male mice (Jackson labs) were used at 12-weeks of age and randomized for treatment based on fasting glucose levels. For OGTT experiments, drugs were formulated in 1% HPMC, 10% HPbCD, 1% Tween-80 and dosed via oral gavage. Glucose was administered at 2 g/kg 1-hour post drug dose by oral gavage.
(§6) For all glucose tolerance tests, glucose and insulin measurements were taken from tail vein samples at various time-points. Blood glucose values were measured on an Accu-Chek glucometer (Roche Diagnostics), while insulin levels were determined using an ELISA (Alpco).

[9] = Unbound plasma drug concentration in HF/STZ mice; assay type: in vivo; settings: C57BL/6j, mouse, 100 mg/kg oral, 1-hour post drug administration, by MS, read-out: free drug level in plasma
mouse GPR40 = mouse GPR40 (Mus musculus, UniProt Q76JU9); test: Mouse GPR40 inositol phosphate accumulation assay; assay type: cell-based
Chain of mouse GPR40 (Q76JU9 whole entry): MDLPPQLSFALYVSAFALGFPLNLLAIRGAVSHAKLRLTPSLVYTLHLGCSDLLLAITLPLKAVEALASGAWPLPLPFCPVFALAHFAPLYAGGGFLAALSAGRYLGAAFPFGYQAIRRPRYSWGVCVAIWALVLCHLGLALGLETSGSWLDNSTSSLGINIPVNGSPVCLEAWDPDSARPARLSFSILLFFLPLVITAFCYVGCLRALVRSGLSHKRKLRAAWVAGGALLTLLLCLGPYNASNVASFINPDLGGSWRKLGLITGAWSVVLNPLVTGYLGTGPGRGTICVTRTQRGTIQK
Method: as §1

HF/STZ mice [10] = test: Single oral dose without glucose challenge in HF/STZ mice: GLP-1, insulin, glucose, GIP; assay type: in vivo, mouse
Method: The increase in insulin secretion by GPR40 agonists is due to direct stimulation of GPR40 receptors on pancreatic β-cells, but may also be derived from stimulation of the gut peptides GLP-1 and GIP, which subsequently act on the GLP-1 and GIP G protein-coupled receptors found on pancreatic β-cells. […] No glucose challenge was performed in order to isolate the effects of the compounds alone.
as §5

humans = settings: cited from earlier work
Zucker fatty rats = settings: 21-day, qd dosing; cited from earlier work
[11] = system: wild type and GPR40 knockout mice; test: OGTT and GLP-1 secretion in wild type and GPR40 null mice; assay type: in vivo, mouse; settings: OGTT, single oral dose
Method: as §5, §6

Compound: CC#CC(CC(=O)O)c1ccc(OCc2ccc(-c3cccc(OC)c3)cc2)cc1 (racemic) [(±)-AM-8596]
- EC50 (GPR40 [1]): 1500 ± 170 nM
- Emax (GPR40 [1]): 98%

Compound: CC[C@H](CC(=O)O)c1cccc(OCc2ccc(-c3cc(OC)ccc3F)c([C@@H]3CCCC3(C)C)c2)c1F [AM-6226]
- EC50 (GPR40 [1]): 130 ± 30 nM
- Emax (GPR40 [1]): 105%
- intrinsic activity, fold greater than AMG 837 (GPR40 [2]; inositol phosphate assay): ~2 fold
- EC50 (GPR40 [2]; inositol phosphate assay, 1-hour accumulation, read-out: Half-maximal potency): 5.7 ± 0.8 nM
- displacement of 3H-AM-1638 (GPR40 [3]): displaced ^3H-AM-1638
- activation of GPR41 (FFAR3) (GPR41 (FFAR3)): did not activate
- activation of GPR43 (FFAR2) (GPR43 (FFAR2)): did not activate
- EC50 (GPR120): ~5000 nM
- activation of PPAR alpha (PPAR alpha): did not activate
- activation of PPAR delta (PPAR delta): did not activate
- activation of PPAR gamma (PPAR gamma): did not activate
- increase of insulin secretion, fold from that of AMG 837 (mouse islets [4]): 3–4 fold
- EC50 (mouse islets [4]; read-out: EC50 for potentiation of insulin secretion): 940 ± 600 nM
- GSIS response of GPR40 knockout islets [5]: did not respond
- IP production efficacy, fold greater than AMG 837 (human islet cells): 8–10 ×
- stimulation of insulin secretion compared with AMG 837 (human islets): significantly greater
- inositol phosphate accumulation, fold increase compared to AMG 837 (GLUTag cells): 3–4 fold

Compound: C/C=C/[C@H](CC(=O)O)c1ccc(OCc2ccc(-c3cc(OC)ccc3F)cc2)cc1 [AM-8182]
- EC50 (GPR40 [1]): 2400 ± 100 nM
- Emax (GPR40 [1]): 106%

Compound: CC#C[C@@H](CC(=O)O)c1ccc(OCc2cccc(-c3ccc(C(F)(F)F)cc3)c2)cc1 [AMG 837, reference compound]
- insulin stimulation compared to vehicle control (mouse islets [6]; 3 mM glucose): neither AMG 837 nor AM-1638 stimulated insulin
- insulin secretion (mouse islets [6]; 16.7 mM glucose): increased both first and second phase insulin secretion
- GLP-1 release in vitro [7]: could stimulate GLP-1 release
- Glucose AUC improvement (HF/STZ mice [8]; OGTT, 100 mg/kg oral, 1 hour before glucose): 19%
- doses at which maximally efficacious (HF/STZ mice [8]; preliminary experiments): ≥ 60 mg/kg
- concentration at 1 h [9]: 826 ± 66 nM
- EC50 (mouse GPR40): 11 ± 0.05 nM
- blood glucose levels (HF/STZ mice [10]; HF/STZ mice, single oral dose, no glucose challenge): stabilized blood glucose levels
- GLP-1 or GIP levels in vivo (HF/STZ mice [10]; oral gavage, doses as high as 100 mg/kg): does not substantially increase
- glucose and insulin levels in healthy volunteers (humans; phase 1 clinical trials, ref Amgen, data on file): did not lower glucose or increase insulin levels
- anti-diabetic effects after repeated dosing (Zucker fatty rats): sustained anti-diabetic effects

Compound: O=C(O)CCc1ccc(NCc2cccc(Oc3ccccc3)c2)cc1 [GW-9508, reference compound]
- agonist character (GPR40 [2]): partial agonists

Compound: Cc1cc(OCCCS(C)(=O)=O)cc(C)c1-c1cccc(COc2ccc3c(c2)OC[C@H]3CC(=O)O)c1 [TAK-875]
- glycemic parameters in type 2 diabetic subjects (humans): improve glycemic parameters
- incretin levels in type 2 diabetic patients (humans): not associated with a change in incretin levels

Compound: Cc1ccccc1C#Cc1ccc(CCC(=O)O)cc1 [TUG-424, reference compound]
- agonist character (GPR40 [2]): partial agonists

Compound: N[C@@H](CC(=O)N1CCn2c(nnc2C(F)(F)F)C1)Cc1cc(F)c(F)cc1F [sitagliptin, reference compound]
- improvement in pre- and post-challenge glucose levels ([11]; GPR40 knockout mice): maintained in both
- improvement in pre- and post-challenge glucose levels ([11]; wild type mice): maintained in both

Compound: Exendin-4: exerts its effects via GLP-1R [reference compound]
- GSIS response of GPR40 knockout islets [5]: did respond
